According to ChEMBL document CHEMBL1201862, “PubChem BioAssay data set” (2004):
Calls of active or inactive are those of the source.

How the values were obtained:
[1] = Vero E6 cell cytotoxicity, dose response, cytotoxicity control for non-replicating M. tuberculosis project, secondary assay (AID 492998); format: functional, VeroE6; conditions: Vero C1008
[2] = biological target: T1, Sphingosine 1-phosphate receptor 4 (Homo sapiens, UniProt O95977); experiment: Fluorescence dose response cell-based high throughput screening assay for antagonists of the Sphingosine 1-Phosphate Receptor 4 (S1P4). [Related pubchem assays: 1524 (Confirmation in triplicates.), 1510 (Primary screen.)]; format: functional
T1 sequence (O95977 whole entry): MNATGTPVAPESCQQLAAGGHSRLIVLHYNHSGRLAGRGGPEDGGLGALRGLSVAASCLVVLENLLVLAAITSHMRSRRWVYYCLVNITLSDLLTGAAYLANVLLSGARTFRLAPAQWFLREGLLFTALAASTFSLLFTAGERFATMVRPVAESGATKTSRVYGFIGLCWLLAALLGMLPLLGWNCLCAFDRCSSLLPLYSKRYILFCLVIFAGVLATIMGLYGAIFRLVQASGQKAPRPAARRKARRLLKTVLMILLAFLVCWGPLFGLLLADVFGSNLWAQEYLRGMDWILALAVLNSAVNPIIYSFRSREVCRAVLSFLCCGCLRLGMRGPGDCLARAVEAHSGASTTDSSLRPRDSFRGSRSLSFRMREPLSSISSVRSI

Streptococcus = experiment: GAS UMAA2166 growth inhibition – luminescence, BacTiterGlo, counter-screen for streptokinase expression inhibitor project, dose response (AID 1915); format: functional, organism-based;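 also: potency for reduction of bacterial viability or growth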
[3] = viability of PTEN-deleted HCT116 cells – cell-based, HCT116 PTEN knockout, dose response (AID 1047); format: functional;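 also: HCT116 colon tumor cells with PTEN knocked out; cells exposed to compound for 60 hours before readout; potency for loss of cell viability measured by luminescence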
[4] = viability of HCT116 lacking mutant beta-catenin – cell-based, human colon tumor, dose response (AID 1045); format: functional;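 also: HCT116 colon tumor cells with beta catenin knocked out; cells exposed to compound for 60 hours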
[5] = microbe, parasite or virus in culture; format: functional; conditions: Mycobacterium tuberculosis
cells = format: functional
[6] = viability loss of HPDE-C7K cells – cell-based, fluorescence, HTS, primary screen (AID 431); format: functional; conditions: Homo sapiens
[7] = HepG2 cell cytotoxicity, dose response, cytotoxicity control for non-replicating M. tuberculosis project (AID 489018); format: functional; conditions: Mycobacterium tuberculosis
[8] = loss of viability in HepG2 cells – cell-based, CellTiter-Glo, cherry-picked, cytotoxicity control for Shn3 inhibitor project, dose response (AID 624134); format: functional
[9] = THP-1 cell cytotoxicity, dose response, cytotoxicity control for non-replicating M. tuberculosis project (AID 489025); format: functional
[10] = biological target: T2, Heat shock factor protein 1 (Mus musculus, UniProt P38532); experiment: enhancement of HSF1-driven luciferase signal – cell-based, NIH3T3, luminescence, dose retest, confirmation (AID 435004); format: functional;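 also: stress induced by proteasome inhibitor MG132 added 30 min after compound; luciferase reporter driven by HSF1 response element in NIH3T3 cells; actives raise luminescence as potentiators of the MG132 stress response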
T2 sequence (P38532 whole entry): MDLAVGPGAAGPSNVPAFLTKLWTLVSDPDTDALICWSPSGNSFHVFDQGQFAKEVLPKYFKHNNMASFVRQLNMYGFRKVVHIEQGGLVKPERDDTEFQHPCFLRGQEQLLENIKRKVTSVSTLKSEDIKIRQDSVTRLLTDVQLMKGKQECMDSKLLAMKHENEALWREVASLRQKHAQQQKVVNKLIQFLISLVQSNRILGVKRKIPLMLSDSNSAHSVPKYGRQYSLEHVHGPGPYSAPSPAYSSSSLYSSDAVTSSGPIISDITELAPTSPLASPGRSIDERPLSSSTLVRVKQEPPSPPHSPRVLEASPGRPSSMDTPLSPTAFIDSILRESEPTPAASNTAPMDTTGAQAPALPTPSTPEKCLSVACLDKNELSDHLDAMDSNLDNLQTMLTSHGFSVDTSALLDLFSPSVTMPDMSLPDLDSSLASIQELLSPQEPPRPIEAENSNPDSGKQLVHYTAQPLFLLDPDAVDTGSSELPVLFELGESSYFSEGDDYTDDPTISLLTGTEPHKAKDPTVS

[11] = biological target: Sphingosine 1-phosphate receptor 1 (Homo sapiens, UniProt P21453); format: functional;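 also: Tango beta-arrestin reporter U2OS cells stimulated with S1P near its EC80; inhibitor potency meaning antagonism of receptor activation by the natural agonist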
Sphingosine 1-phosphate receptor 1, sequence (P21453 whole entry): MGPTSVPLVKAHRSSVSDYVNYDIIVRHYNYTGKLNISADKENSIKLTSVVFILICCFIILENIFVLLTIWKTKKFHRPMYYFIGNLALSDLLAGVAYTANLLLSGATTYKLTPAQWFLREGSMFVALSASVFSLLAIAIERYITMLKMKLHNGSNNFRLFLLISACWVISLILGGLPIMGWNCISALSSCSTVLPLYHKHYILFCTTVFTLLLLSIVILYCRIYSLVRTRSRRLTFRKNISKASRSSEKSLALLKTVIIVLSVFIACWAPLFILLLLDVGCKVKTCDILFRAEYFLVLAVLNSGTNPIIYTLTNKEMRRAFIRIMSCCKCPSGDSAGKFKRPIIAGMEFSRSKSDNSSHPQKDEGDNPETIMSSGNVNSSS

[12] = HPDE-C7 pancreatic duct cell viability loss – fluorescence, HTS (AID 430); format: functional, cell-based; conditions: Homo sapiens
[13] = tested on: Streptococcus sp. 'group A'; experiment: Streptococcus pyogenes SK(-)GAS viability under kanamycin – luminescence, BacTiterGlo, confirmation, counter-screen for streptokinase expression inhibitor project, dose response (AID 1900); format: functional, organism-based
[14] = reduction of Shn3 3'UTR-driven luciferase in osteoblasts – cell-based, Clone20 osteoblasts, firefly luciferase, cherry-picked, dose response (AID 624132); format: functional;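 also: firefly luciferase luminescence from reporter carrying the Shn3 3'UTR in osteoblasts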
[15] = mitochondrial function rescue without frataxin homolog – Friedreich's ataxia, plus single-dose screen, dose response (AID 1465); format: functional;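 also: yeast depleted of Yfh1p frataxin homolog grown on glycerol needing respiration; WST-1 tetrazolium dye reduction as measure of cellular dehydrogenase metabolic activity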
[16] = biological target: Serine/threonine-protein phosphatase PP1-alpha catalytic subunit (Homo sapiens, UniProt P62136); experiment: inhibition of protein phosphatase 1 activity – biochemical, fluorescence, dose response (AID 2403);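 also: phosphatase turnover of OMFP into fluorescent 3-O-methylfluorescein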
Serine/threonine-protein phosphatase PP1-alpha catalytic subunit, sequence (P62136 whole entry): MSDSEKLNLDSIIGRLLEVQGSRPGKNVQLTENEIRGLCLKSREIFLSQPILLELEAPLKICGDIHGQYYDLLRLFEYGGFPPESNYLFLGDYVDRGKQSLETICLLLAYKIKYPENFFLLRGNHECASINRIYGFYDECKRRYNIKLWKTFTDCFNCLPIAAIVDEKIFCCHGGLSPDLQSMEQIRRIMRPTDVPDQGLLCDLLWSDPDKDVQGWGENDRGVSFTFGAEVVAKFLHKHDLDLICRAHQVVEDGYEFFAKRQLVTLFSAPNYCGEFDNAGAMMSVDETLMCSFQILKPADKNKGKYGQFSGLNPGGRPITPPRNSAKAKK

[17] = biological target: Serine/threonine-protein phosphatase (Homo sapiens, UniProt Q9BPW0); experiment: Counterscreen for inhibitors of PP1: fluorescence-based biochemical high throughput dose response assay to identify inhibitors of Protein Phosphatase 5 (PP5). [Related pubchem assays: 2034 (Summary (PP5 inhibitors)), 1987 (PP5 inhibitors in singlate), 2235 (PP1 inhibitors in singlate)]
Serine/threonine-protein phosphatase, sequence (Q9BPW0 whole entry): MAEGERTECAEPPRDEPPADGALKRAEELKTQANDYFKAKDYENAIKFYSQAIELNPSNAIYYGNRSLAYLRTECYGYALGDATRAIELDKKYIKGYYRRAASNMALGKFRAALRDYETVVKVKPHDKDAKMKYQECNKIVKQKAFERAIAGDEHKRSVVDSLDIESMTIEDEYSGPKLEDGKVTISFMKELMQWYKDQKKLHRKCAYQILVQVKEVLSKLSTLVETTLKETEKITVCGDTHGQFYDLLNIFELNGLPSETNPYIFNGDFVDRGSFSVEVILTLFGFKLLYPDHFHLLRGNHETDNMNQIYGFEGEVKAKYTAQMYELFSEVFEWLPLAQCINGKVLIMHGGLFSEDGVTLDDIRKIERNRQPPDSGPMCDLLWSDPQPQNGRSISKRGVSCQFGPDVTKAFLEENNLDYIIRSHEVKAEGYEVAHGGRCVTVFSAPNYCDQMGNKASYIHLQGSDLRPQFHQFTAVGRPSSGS

Vasopressin V1a receptor = Vasopressin V1a receptor (Homo sapiens, UniProt P37288); experiment: Counterscreen for Oxytocin Receptor (OXTR) agonists: Fluorescence-based cell-based high throughput dose response assay to identify agonists of the vasopressin 1 receptor (V1R). [Related pubchem assays: 2435 (Primary screen (OXTR agonists in singlicate)), 434991 (Counterscreen (V1R agonists in triplicate)), 2482 (Summary (OXTR agonists)) …; format: functional
Vasopressin V1a receptor, sequence (P37288 whole entry): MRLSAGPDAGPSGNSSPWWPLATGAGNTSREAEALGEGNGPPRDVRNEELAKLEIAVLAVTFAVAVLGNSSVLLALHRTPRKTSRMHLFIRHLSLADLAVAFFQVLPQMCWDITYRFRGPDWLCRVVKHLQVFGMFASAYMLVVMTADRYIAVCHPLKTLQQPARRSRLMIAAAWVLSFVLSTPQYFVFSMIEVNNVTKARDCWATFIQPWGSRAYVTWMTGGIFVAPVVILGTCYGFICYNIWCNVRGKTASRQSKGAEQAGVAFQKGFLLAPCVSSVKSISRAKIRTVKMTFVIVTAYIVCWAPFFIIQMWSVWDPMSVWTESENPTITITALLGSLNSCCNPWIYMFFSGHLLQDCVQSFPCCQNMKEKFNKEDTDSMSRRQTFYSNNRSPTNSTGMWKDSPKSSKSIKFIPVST

Oxytocin receptor = Oxytocin receptor (Homo sapiens, UniProt P30559); experiment: Fluorescence-based cell-based high throughput dose response assay for agonists of the Oxytocin Receptor (OXTR). [Related pubchem assays: 2435 (Primary screen (OXTR agonists in singlicate)), 434991 (Counterscreen (V1R agonists in triplicate)), 2482 (Summary (OXTR agonists)), 434963 (Confirmation screen (OXTR agonists in triplicate))]; format: functional
Oxytocin receptor, sequence (P30559 whole entry): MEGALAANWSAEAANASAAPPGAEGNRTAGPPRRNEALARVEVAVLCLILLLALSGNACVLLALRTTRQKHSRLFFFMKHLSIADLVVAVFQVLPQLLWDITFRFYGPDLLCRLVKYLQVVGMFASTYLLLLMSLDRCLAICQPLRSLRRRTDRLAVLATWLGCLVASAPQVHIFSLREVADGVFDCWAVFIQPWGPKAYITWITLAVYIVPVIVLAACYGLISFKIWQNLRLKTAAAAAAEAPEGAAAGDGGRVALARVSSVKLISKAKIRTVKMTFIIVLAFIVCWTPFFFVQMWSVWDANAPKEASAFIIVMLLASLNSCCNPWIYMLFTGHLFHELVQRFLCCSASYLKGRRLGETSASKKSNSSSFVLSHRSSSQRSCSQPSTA

[18] = biological target: Voltage-gated inwardly rectifying potassium channel KCNH2 (Homo sapiens, UniProt Q12809); conditions: Potency;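 also: confirmatory quantitative high-throughput screen measuring inhibition of hERG channel activity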
Voltage-gated inwardly rectifying potassium channel KCNH2, sequence (Q12809 whole entry): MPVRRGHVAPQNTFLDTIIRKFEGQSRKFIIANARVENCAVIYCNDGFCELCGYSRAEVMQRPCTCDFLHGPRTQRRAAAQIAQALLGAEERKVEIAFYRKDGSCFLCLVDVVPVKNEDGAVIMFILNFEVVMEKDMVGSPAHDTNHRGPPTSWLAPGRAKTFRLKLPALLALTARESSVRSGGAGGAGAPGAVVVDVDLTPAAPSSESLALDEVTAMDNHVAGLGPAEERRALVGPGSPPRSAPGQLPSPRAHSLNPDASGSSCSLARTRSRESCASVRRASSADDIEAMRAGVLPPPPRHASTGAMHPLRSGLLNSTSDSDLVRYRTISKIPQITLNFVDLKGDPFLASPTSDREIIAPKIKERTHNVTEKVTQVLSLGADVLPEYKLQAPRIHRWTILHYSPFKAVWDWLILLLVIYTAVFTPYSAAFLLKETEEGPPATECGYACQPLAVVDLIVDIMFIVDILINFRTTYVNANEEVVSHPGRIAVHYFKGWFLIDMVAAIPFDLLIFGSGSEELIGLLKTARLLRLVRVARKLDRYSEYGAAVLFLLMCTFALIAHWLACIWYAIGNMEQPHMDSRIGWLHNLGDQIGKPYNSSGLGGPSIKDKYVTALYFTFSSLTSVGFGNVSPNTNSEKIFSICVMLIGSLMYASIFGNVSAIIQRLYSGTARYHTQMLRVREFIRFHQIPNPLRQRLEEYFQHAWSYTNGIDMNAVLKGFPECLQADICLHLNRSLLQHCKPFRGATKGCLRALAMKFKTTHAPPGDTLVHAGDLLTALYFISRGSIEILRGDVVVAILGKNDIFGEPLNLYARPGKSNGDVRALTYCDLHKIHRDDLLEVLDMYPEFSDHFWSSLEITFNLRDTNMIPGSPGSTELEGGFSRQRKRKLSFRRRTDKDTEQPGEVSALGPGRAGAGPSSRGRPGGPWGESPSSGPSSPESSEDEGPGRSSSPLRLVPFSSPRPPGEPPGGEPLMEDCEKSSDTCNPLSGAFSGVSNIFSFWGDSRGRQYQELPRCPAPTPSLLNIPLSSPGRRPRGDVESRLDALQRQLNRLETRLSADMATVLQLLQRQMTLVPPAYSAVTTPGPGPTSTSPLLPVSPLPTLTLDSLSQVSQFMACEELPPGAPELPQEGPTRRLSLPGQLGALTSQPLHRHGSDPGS

Cytochrome P450 2D6 [19] = biological target: T3, Cytochrome P450 2D6 (Homo sapiens, UniProt P10635)
T3 sequence (P10635 whole entry): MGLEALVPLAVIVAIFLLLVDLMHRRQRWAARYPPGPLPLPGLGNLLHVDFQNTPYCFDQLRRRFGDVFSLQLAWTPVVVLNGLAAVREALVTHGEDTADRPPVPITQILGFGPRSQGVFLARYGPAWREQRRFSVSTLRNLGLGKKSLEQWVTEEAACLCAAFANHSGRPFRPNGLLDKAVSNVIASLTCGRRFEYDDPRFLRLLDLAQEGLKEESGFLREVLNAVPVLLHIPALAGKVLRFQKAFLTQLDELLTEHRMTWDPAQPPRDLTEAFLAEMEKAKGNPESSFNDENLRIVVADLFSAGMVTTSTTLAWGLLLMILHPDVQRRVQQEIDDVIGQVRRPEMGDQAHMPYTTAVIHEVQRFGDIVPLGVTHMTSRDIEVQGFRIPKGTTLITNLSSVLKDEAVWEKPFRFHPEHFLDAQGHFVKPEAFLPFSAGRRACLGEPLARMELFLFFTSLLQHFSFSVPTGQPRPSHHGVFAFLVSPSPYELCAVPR

Cytochrome P450 2C19 = Cytochrome P450 2C19 (Homo sapiens, UniProt P33261); experiment: Cytochrome panel assay with activity outcomes. Panel member name: p450-cyp2c19 Compounds with AC50 equal or less than 10 uM are considered active; format: functional; conditions: read-out: AC50
Cytochrome P450 2C19, sequence (P33261 whole entry): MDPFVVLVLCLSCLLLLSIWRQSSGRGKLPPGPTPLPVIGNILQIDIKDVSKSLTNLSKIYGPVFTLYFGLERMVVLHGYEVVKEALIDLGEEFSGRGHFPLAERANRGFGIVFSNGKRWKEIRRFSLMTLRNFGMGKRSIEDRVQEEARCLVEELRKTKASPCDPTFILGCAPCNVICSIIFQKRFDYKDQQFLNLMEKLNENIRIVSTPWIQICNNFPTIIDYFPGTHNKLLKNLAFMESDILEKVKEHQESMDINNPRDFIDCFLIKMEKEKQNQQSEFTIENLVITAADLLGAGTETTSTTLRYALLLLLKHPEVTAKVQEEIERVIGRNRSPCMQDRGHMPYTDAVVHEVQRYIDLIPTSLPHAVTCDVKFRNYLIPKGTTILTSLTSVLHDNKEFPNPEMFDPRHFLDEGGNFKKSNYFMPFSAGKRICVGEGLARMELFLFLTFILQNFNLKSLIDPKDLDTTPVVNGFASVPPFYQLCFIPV

Cytochrome P450 2D6 [20] = biological target: T3, Cytochrome P450 2D6; experiment: qHTS Assay for Inhibitors and Substrates of Cytochrome P450 2D6. [Related pubchem assays: 410 ]; format: ADME; conditions: read-out: Potency

Cc1ccc(S(=O)(=O)Nc2cccc3ncccc23)s1
CC50 [1]: 4.2 µM (active)
IC50 [2]: 0.611 µM (active)
EC50 (Streptococcus): 10.1 µM (active)
EC50 [3]: 1.73 µM (active)
EC50 [4]: 1.46 µM (active)
CC50 [5]: 6.47 µM (active)
IC50 (cells): 2.01 µM (active)
EC50 [6]: 10.3 µM (active)
CC50 [7]: 6.97 µM (active)
AC50 [8]: 9.75 µM (active)
CC50 [9]: 6.44 µM (active)
EC50 [10]: 3.91 µM (active)
IC50 [11]: 1.19 µM (active)
EC50 [12]: 11.3 µM (active)
EC50 [13]: 1.78 µM (active)
AC50 [14]: 3.85 µM (active)

CCOC(=O)/C(C#N)=C/C=C1/C=CC=CN1C
EC50 [15]: > 100 µM (active)

Cc1ccc(-n2nc(C(=O)O)cc2-c2ccc(Cl)cc2)cc1
IC50 [16]: 9.65 µM (active)
IC50 [17]: > 67 µM (not active)

CC(Oc1ccc(F)cc1)C(=O)Nc1ccc(S(=O)(=O)NC2=NCCCCC2)cc1 (stereo not given)
EC50 (Vasopressin V1a receptor): > 29.9 µM (not active)
EC50 (Oxytocin receptor): > 29.9 µM (not active)

O=C(CCc1ccc(O)cc1)c1c(O)cc(O)cc1O [PHLORETIN]
AC50 [18]: 12.6 µM (inconclusive)
AC50 (Cytochrome P450 2D6 [19]): 39.8 µM (inconclusive)
AC50 (Cytochrome P450 2C19): 20 µM (inconclusive)
AC50 (Cytochrome P450 2D6 [20]): 25.1 µM (inconclusive)
